{"source": "patent US10179355B2", "about": "“Bioremediation enhancing agents and methods of use” (JRW BIOREMEDIATION, LLC, priority 2007, dated 2019)", "type_in_all_cases": "cell-based, Dehalococcoides and Dehalobacter spp.", "key": {"[1]": {"test_system": "dechlorinating bacteria known to convert PCE to ethene", "experiment": "Set F: Additional Novel Bioremediation Amendments, PCE dechlorination microcosms", "settings": "44 days, nominally 1,000 mg/L", "procedure": "(§1) The following components were used in the system for bioremediating contaminated ground water microcosms in Examples 2-8: • 160 milliliter (ml) stoppered serum bottles • 100 ml of anaerobic culture medium, groundwater containing an excess of bioavailable phosphorus and nitrogen at 0.5 mM Phosphate and 1 mM ammonium degassed with a nitrogen sparge • Nominally 1 gram of limestone • 19.54 micromoles (pmoles) Perchloroethene (PCE) • An excess of various electron donors were utilized • 3 ml of inoculum containing dechlorinating bacteria known to convert PCE to ethene.\nSet F included microcosms that contained Sodium Gluconate and Sodium Erythorbate. They started at concentrations that were nominally 1,000 mg/L as compared with the sodium lactate control at 7 mM (784 mg/L).\nThe objective of this set was to characterize the ability of these two novel bioremediation electron donors to completely dechlorinate PCE and characterize the electron donor utilization efficiency as compared with sodium lactate."}, "[2]": {"test_system": "dechlorinating bacteria known to convert PCE to ethene", "experiment": "Set E: Relative Efficiency of Novel Bioremediation Amendments (electron donors), PCE dechlorination microcosms", "excerpt": "(§2) Sets B, C, D, E, and G further contain figures and tables showing results of the characterization of the Efficiency and the Relative Efficiency of electron donor usage. Efficiency may be defined as the percent of electron donor utilized for dechlorination, and may be calculated by dividing the pmoles of Chloride ion generated by the pmoles of electron donor consumed as measured by either Volatile Fatty Acid (VFA) analysis (Sets B, C, and G) or Chemical Oxygen Demand (COD) analysis (Set D and E). The Relative Efficiency of the electron donor utilization may be defined as the Efficiency of the Electron Donor divided by the Efficiency of the Lactate Control.\nas §1\nThe fifth set tested a variety of different electron donors comparing Crude Glycerin, Sodium Citrate, Ethanol and Whey all charged at nominally 1,000 mg/L to lactate at 7 mM (784 mg/L).\nThe objective of the study was to test bioremediation amendments for efficacy as electron donors as well as to characterize their Efficiency for dechlorination as compared to the Lactate Control."}, "[3]": {"test_system": "dechlorinating bacteria known to convert PCE to ethene", "experiment": "Set G: Additional Yeast Metabolites and Polysaccharides as Nutrients, PCE dechlorination microcosms (kinetics, Relative Rate, paired t-test)", "settings": "bottles 1-3", "excerpt": "Certain contaminated materials (or sites) may contain indigenous microbial communities that are sufficient for complete bioremediation of contaminants. For such sites, there is no need to add microbes unless the indigenous microbes are genetically deficient in achieving the desired clean-up goals. For those sites that are microbiologically limited, microorganisms may be added to the contaminated materials (or sites). In one embodiment, the inoculum may be a mixed culture of halo-respiring bacteria that have been enriched to reach an optimal cell density. These mixed cultures of halo-respiring bacteria may be typically obtained from sediment samples from rivers, streams or any waterways. More specifically, the inoculum used in the Examples was originated from a Sangamon River sediment sample (Lodge Park, Piatt County, Ill.) See, e.g., Brennan, R. A., Sanford, R. A. and Werth, C. J. (2006). “Biodegradation of Tetrachloroethene by Chitin Fermentation Products in a Continuous Flow Column System.” Journal of Environ. Engr., June 665-673. This culture had grown for several years on PCE, anaerobic basal salts medium, Wolfe's vitamin solution and various electron donors including lactate (1-2 millimolar (mM)), formate (4 mM) and chitin using the Volatile Interface Transfer Apparatus (VITA) reactor system at the University of Illinois. Brennan, R. A., and Sanford, R. A. (2002). “Continuous steady-state method using Tenax for delivering tetrachloroethene to chlororespiring bacteria.” Appl. Environ. Microbiol., 68(3), 1464-1467. […] Using 16S rRNA gene-specific primers, both Dehalococcoides and Dehalobacter spp. were detected. Quantitative real-time PCR has been used to determine that approximately 1.65×10^7 Dehalococcoides gene copies were present per ml of culture.\nFor purpose of this disclosure, each bottle may be started with a certain amount of PCE. At subsequent times each bottle may be sampled for the degradation daughter products of PCE, namely trichloroethene (TCE), cis-dichloroethene (DCE), vinyl chloride (VC) and ethene, etc. Trans-DCE and 1,1-DCE are also daughter products of PCE, but they may not be detectable under the conditions disclosed here.\nThe rate of degradation may be determined by calculating the number of pmoles of chloride ions removed from PCE and subsequently from the amounts of the daughter products generated. The calculation may be performed as follows: Chloride (μmoles)=[…]−4×PCE (μmoles)−3×TCE (pmoles)−2×DCE (μmoles)−VC (μmoles)\nThe alternative chloride calculation is: Chloride (μmoles)=TCE (μmoles)+2×DCE (μmoles)+3×VC (μmoles)+4×Ethene (μmoles)\nNext, the dechlorination rate may be determined for each bottle at each time by dividing the Chloride generated by the time (days). The data may be then normalized to the lactate control by taking the ratio of Chloride Rate (pmoles/day) and the Lactate Control Chloride Rate (pmoles/day). This ratio is called Relative Rate and is dimensionless.\nAs shown in the Examples, a paired t-test has been conducted to calculate the probability that the Relative Rate of one group (i.e. with Nutrient) is greater than the other group (i.e. without Nutrient). The null hypothesis is that the underlying means of the two paired groups are equal. The Probability that one group has higher Relative Rates than the other group is shown in various tables in the Examples.\nas §1, with “ethene. […]” for “ethene.”"}, "[4]": {"test_system": "dechlorinating bacteria known to convert PCE to ethene", "experiment": "Set G: Efficiency by VFA Analysis", "excerpt": "as §2\nThe method used to calculate the consumption of the electron donor measured the propionate, acetate and formate levels to calculate the consumption of electron donor over time. The lactate and propionate fermented very rapidly resulting in acetate and formate as the only measurable VFAs.\nSet G contained microcosms that tested two different Yeast Metabolites (YM3 and YM4) and a Polysaccharide (PS1) for kinetics and efficiency of electron donor utilization using lactate and molasses as the electron donors. PS1 was also tested as an electron donor by itself.\nLactate at 11.2 mM (1,000 mg/L) and nutrient amendment at 1% of the electron donor levels (˜10 mg/L). Triplicate bottles received 2 micro liters of PCE and 2 ml of inoculum. The bottles were sampled 5 times over a 138 day period."}}, "note": "Values joined by “and” are separate entries in the source; they are usually repeats but may differ in a detail not shown here. Equal entries are not always repeated."}
{"molecule": "O=C1O[C@H]([C@H](O)CO)C([O-])=C1O.[Na+]", "note": "[Na-Erythorbate, Sodium Erythorbate]", "values": [{"measurement": "Ethene generation (in words)", "setting": "[1]", "value": "starting to generate Ethene"}]}
{"molecule": "O=C([O-])[C@H](O)[C@@H](O)[C@H](O)[C@H](O)CO.[Na+]", "note": "[Na-Gluconate, Sodium Gluconate]", "values": [{"measurement": "Ethene generation (in words)", "setting": "[1]", "value": "starting to generate Ethene"}]}
{"molecule": "O=C([O-])CC(O)(CC(=O)[O-])C(=O)[O-].[Na+].[Na+].[Na+]", "note": "[Sodium Citrate]", "values": [{"measurement": "ability to dechlorinate PCE (in words)", "setting": "[2]", "value": "ability to completely dechlorinate PCE"}, {"measurement": "dechlorination speed compared to Lactate Control / other amendments (in words)", "setting": "[2]", "value": "almost as fast"}, {"measurement": "efficient as the Lactate Control (Relative Efficiency)", "setting": "[2]; electron donor nominally 1,000 mg/L vs lactate 7 mM", "value": 84, "unit": "%"}]}
{"molecule": "inulin [PS1]", "values": [{"measurement": "Relative Rate", "setting": "[3]; time 35 days", "value": "0.03 and 0.04 and 0.05"}, {"measurement": "Relative Rate", "setting": "[3]; time 50 days", "value": "0.02 and 0.01 (2×)"}, {"measurement": "Relative Rate", "setting": "[3]; time 79 days", "value": "0.03 and 0.04 and 0.02"}, {"measurement": "Relative Rate", "setting": "[3]; time 138 days", "value": 0.00}, {"measurement": "Estimated % Efficiency", "setting": "[4]; e^- used dechlorination / e^- used donor", "value": 0.283, "unit": "%"}, {"measurement": "Relative Efficiency", "setting": "[4]; relative to Lactate Control = 100%", "value": 5, "unit": "%"}]}
